Measurements: patent US5869482A, “Dipyridio[2,3-b:3',2'-] azepines and their use in the prevention or treatment of HIV infection” (priority 1997, dated 1999)

Experiments:
HIV-1 RT (K103N) mutant = molecular target: T1, HIV-1 RT (K103N) mutant (Human immunodeficiency virus type 1 group M subtype B, UniProt P03367, K702N); assay: biochemical; design: species or system Human Immunodeficiency Virus (HIV-1); conditions: 1 μM compound; RNA-dependent DNA polymerase activity; read-out: RT (K103N) % inh. (1 μM)
T1 construct: Reverse transcriptase enzyme from the LAV strain; made in house; host or cells: E. coli JM109 with clone pBRTprtl+ in vector pIBI21 (stated for the wild-type enzyme; inferred for the K103N mutant)

HIV-1 RT (P236L) mutant = molecular target: T2, HIV-1 RT (P236L) mutant (Human immunodeficiency virus type 1 (BRU ISOLATE), UniProt P03367, P835L); type: biochemical, Human Immunodeficiency Virus (HIV-1); conditions: 1 μM compound; RNA-dependent DNA polymerase activity
T2 construct: P236L mutant

HIV-1 RT (L100I) mutant = molecular target: T3, HIV-1 RT (L100I) mutant (Human immunodeficiency virus type 1 (BRU ISOLATE), UniProt P03367, L699I); type: biochemical, Human Immunodeficiency Virus (HIV-1); conditions: 1 μM compound; RNA-dependent DNA polymerase activity
T3 construct: L100I mutant

HIV-1 RT (Y181C) mutant = molecular target: T4, HIV-1 RT (Y181C) mutant (Human immunodeficiency virus type 1 (BRU ISOLATE), UniProt P03367, Y780C); assay: biochemical; design: species or system Human Immunodeficiency Virus (HIV-1); conditions: 1 μM compound; RNA-dependent DNA polymerase activity; read-out: RT (Y181C) % inh. (1 μM)
T4 construct: Y181C by site-directed mutagenesis

[1] = molecular target: HIV-1 reverse transcriptase, wild type (WT) (Human immunodeficiency virus type 1 (BRU ISOLATE), UniProt P03367); assay: Reverse Transcriptase (RT) assay, wild type enzyme; type: biochemical, Human Immunodeficiency Virus (HIV-1), LAV strain; conditions: 1 μM compound; RNA-dependent DNA polymerase activity; read-out: RT (WT) % inh. (1 μM)
Text: Utilizing the Reverse Transcriptase (RT) Assay described below, compounds can be tested for their ability to inhibit the RNA-dependent DNA polymerase activity of HIV-1 RT.
Among the enzymes for which Human Immunodeficiency Virus (HIV-1) encodes is a reverse transcriptase (1), so-named because it transcribes a DNA copy from an RNA template. This activity can be quantitatively measured in a cell-free enzyme assay, which has been previously described (2), and is based upon the observation that reverse transcriptase is able to use a synthetic template [poly r(C) primed with oligo d(G)] to transcribe a radio-labelled, acid-precipitable DNA strand utilizing ^3 H-dGTP as a substrate. The assay described below utilizes the wild type (WT) enzyme, which is the predominant form of the enzyme observed in patients infected with HIV-1.
Reverse transcriptase enzyme from the LAV strain of Human Immunodeficiency Virus (HIV-1) (1) was isolated from the bacterial strain JM109 (3) expressing the DNA clone pBRTprtl+ (2) which is under the control of the lac promotor in the expression vector pIBI21 (4). […] At that time the repressor inhibitor IPTG (isopropyl β-D-thiogalactopyranoside) is added to 0.5 mM, and the mixture is incubated for 2 additional hours. […] The cells are lysed by the addition of 0.2% NP-40 and brought to 1M NaCl. […]

SMILES | inhibition at 1 µM (HIV-1 RT (K103N) mutant) | RT (P236L) % inh. (1 μM) (HIV-1 RT (P236L) mutant) | RT (L100I) % inh. (1 μM) (HIV-1 RT (L100I) mutant) | inhibition at 1 µM (HIV-1 RT (Y181C) mutant) | inhibition at 1 µM [1]
CCN1c2ncccc2C=Cc2cccnc21 [Example 1, 11-Ethyl-dipyrido[2,3-b:3',2'-f]azepine] | 73% | 99% | 81% | 53% | 98%
C1=Cc2cccnc2N(C2CC2)c2ncccc21 [Example 2, 11-Cyclopropyl-dipyrido[2,3-b:3',2'-f]azepine] | 55% | 98% | 80% | 41% | 97%
